{
  "source": "paper PMC7864049",
  "about": "“Co-crystal structures of HIV TAR RNA bound to lab-evolved proteins show key roles for arginine relevant to the design of cyclic peptide TAR inhibitors” (The Journal of Biological Chemistry, 2021)",
  "key": {"[1]": {"system": "HIV TAR RNA", "settings": "cited from earlier work", "description": "(§1) The precise role of arginine in Tat-mediated RNA recognition came into focus only recently based on the high-resolution NMR analysis of an HIV Tat-ARM in complex with human 7SK RNA and HIV TAR RNA ([19]). When bound to host 7SK, Tat adopts a bent conformation wherein a cluster of three arginines specifically recognizes the Hoogsteen edges of guanine nucleobases. Conversely, the Tat-ARM adopts a more linear conformation that uses two arginines to recognize the Hoogsteen edges of TAR nucleobases. Remarkably, these different modes of base recognition use distinctive arginines from the same Tat pe ..."}, "[2]": {"system": "human 7SK RNA", "settings": "cited from earlier work", "description": "as §1"}, "[3]": {"system": "Tat ARM binding to HIV-1 TAR RNA"}, "[4]": {"target": "HIV-1 TAR RNA (27-mer)", "type": "binding"}, "[5]": {"system": "Tat ARM binding to HIV-1 TAR RNA", "remark": "listed apart in the source"}},
  "note": "Entries after “also recorded” stand apart in the source; their conditions may differ. Like-named read-outs stand apart in the source and are kept apart here.",
  "data": [
    {"substance": "Ac-GISYGRKKRRQRRRAHQ-NH2 [Tat ARM, reference compound]", "values": [
      {"measurement": "affinity", "setting": "[1]", "result": "nanomolar affinity"},
      {"measurement": "affinity", "setting": "[2]", "result": "nanomolar affinity"},
      {"measurement": "heats of binding of Tat ARM", "setting": "[3]", "result": "no significant heats of binding; also recorded: no appreciable heats of binding"},
      {"measurement": "Kd", "setting": "[4]", "result": "166 ± 21", "unit": "nM"},
      {"measurement": "ΔG°", "setting": "[4]", "result": "-9.2 ± 0.1", "unit": "kcal/mol"},
      {"measurement": "ΔH°", "setting": "[4]", "result": "−4.5 ± 0.6", "unit": "kca/mol"},
      {"measurement": "−TΔS°", "setting": "[4]", "result": "-4.8 ± 0.7", "unit": "kcal/mol"},
      {"measurement": "Kd", "setting": "[4]; 20 °C", "result": "135 ± 31", "unit": "nM"},
      {"measurement": "Tat binding mode in presence of TB-LP-6.9", "setting": "[5]", "result": "non- identical two- site binding"}
    ]}
  ]
}
